# Data from article PMC10683372 (Protein Science : A Publication of the Protein Society, 2023).
# Several values for one entry are separate records, joined by “and”; a condition that tells them apart may be missing. Identical values can stand only once. Like-named read-outs stand apart in the source and are kept apart here. Bridge positions count the residues as written; N and C are the ends. Square brackets hold non-standard residues; d marks the D form. Ends that are not written are not given here. Peptide text beside a SMILES is read from it. Dip = N[C@H](C(=O)O)C(c1ccccc1)c1ccccc1; 1Nal = N[C@@H](Cc1cccc2ccccc12)C(=O)O; 2Nal = N[C@@H](Cc1ccc2ccccc2c1)C(=O)O; Cha = N[C@@H](CC1CCCCC1)C(=O)O; Nle = CCCC[C@H](N)C(=O)O
# Experiments:
# αT [1] = target: T1, αT (Homo sapiens, UniProt P00734, S568A)
# α‐thrombin (αT) = target: T2, α‐thrombin (αT) (Homo sapiens, UniProt P00734); assay: Tight-binding inhibition of αT amidolytic activity on chromogenic substrate S2238; assay type: biochemical
# T2 construct: goes from Thr1 of the A-chain to Glu295 of the B-chain
# Description: Enzyme inhibition assays were all performed at 25 ± 0.1°C in TBS (10 mM Tris–HCl pH 7.4, 0.1% PEG‐8000 w/v) in the presence of 0.15 M or 0.4 M NaCl, using a Jasco double‐beam V‐630 spectrophotometer equipped with a Peltier model PAC‐740 temperature control system (De Filippis et al., [1999]). Tight‐binding inhibition assays were performed by pre‐incubating αT (500 pM) for 30 min with increasing inhibitor concentrations [I]. The reaction started by the addition of the chromogenic substrate S2238 (20 μM) and the release of p‐nitroaniline (pNA) was continuously monitored at 405 nm, using a molar absorptivity of 9920 M^−1∙cm^−1.
# (§1) and added with the chromogenic substrate S2238 (100 mM). The values of vi/v0, were plotted as
# (§2) a function of the inhibitor, as indicated, where v0 and vi are the steady state velocities in the
# (§3) absence or presence of the inhibitor. The data points were interpolated with eq. 3, to yield Kiapp ,
# (§4) which was then converted to KI using eq. 4. (B) Slow-binding inhibition. Assays were
# (§5) performed by adding aT (50 pM) into a solution of S2238 (40 mM) in the presence of
# (§6) Each progress curve was interpolated with
# (§7) eq. 5 to obtain the corresponding observed kinetic constant, kobs.Interpolation of the data points
# with eq. 6 in the plot of kobs vs. [I], allowed us to estimate the values of kon and koff (see
# Methods for details). All measurements were conducted in at 25 ± 0.1°C in TBS, pH 7.4. The
# data points are the average of three independent measurements, with error bars as ±SD.
# [2] = octanol/water; of the organic molecule corresponding to the amino acid side chain at position 3, not of the peptide; ref Sangster, 1989; cited from earlier work
# [3] = target: recombinant wild‐type thrombin (Homo sapiens, UniProt P00734); assay: biochemical
# Description: (§8) The reaction was started by addition of the chromogenic substrate S2238 (50 μM). Values of v i/v 0 are plotted as a function of inhibitor concentration, where v 0 and v i are the steady state velocities of S2238 hydrolysis in the absence or presence of inhibitor. Data points are the average of three independent measurements, with errors as ±SD. […] Data points in binding/inhibition measurements are the average of three independent measurements, with errors as ±SD.
# (§9) Fluorescence measurements were performed at 25 ± 0.1°C in Tris buffered saline (TBS, 20 mM Tris–HCl, pH 7.4, 0.15 M NaCl, 0.1% PEG‐8000) in a 1 cm‐pathlength cuvette, using a Jasco FP‐6500 spectrofluorimeter, equipped with a Peltier model ETC‐273T temperature control system. […] Briefly, to a solution of αT (50 nM) were added, under gentle magnetic stirring, incremental volumes of ligand stock solutions. The samples were excited at 280 nm (5/5 excitation/emission slit) and the emission intensities were recorded at 334 nm, after subtracting the corresponding spectra of the ligands alone. Fluorescence data were corrected for sample dilution, which was always <2% at the end of the titration. […]
# (§10) When the binding of PABA was studied, samples were excited at 336 nm and the emission of PABA was recorded at 376 nm, after baseline subtraction and correction for inner filter effect, as detailed elsewhere (Pontarollo et al., [2017]). […]
# [4] = target: thrombin R93A (exosite II) (Homo sapiens, UniProt P00734, R452A); assay: biochemical
# Description: as §8, §9, §10
# αT [5] = conditions: at the Arg‐X bond; ref Maraganore et al., 1990; Lombardi et al., 1996, 1999; cited from earlier work
# Excerpt: The fragment‐based approach is quite common in drug discovery and has been already exploited for the production of hirulogs, hirutonins, and hirunorms as simplified hirudin analogues (Lombardi et al., [1996]; Maraganore et al., [1990]; Szewczuk et al., [1993]). […] As a result, hirulog I (Angiomax®) is slowly ...
# αT [6] = target: T1, αT; parameters: made in house; conditions: cited from earlier work
# Excerpt: Abstract Hirudin from Hirudo medicinalis is a bivalent α‐Thrombin (αT) inhibitor, targeting the enzyme active site and exosite‐I, and is currently used in anticoagulant therapy along with its simplified analogue hirulog. […] At variance with hirudin, haemadin targets exosite‐II and therefore (besides the free protease) it also blocks thr ... || The relevance of pharmacological applications of hirudin and its analogues has stimulated intensive research on hematophagous organisms, allowing identification of novel αT protein inhibitors, including the isolation of haemadin from the Indian leech Haemadipsa sylvestris (Strube et al., [1993]). […] However, haemadin binds to the fast form only 7‐fold more tightly than to the Na^+‐free (slow) form, with a coupling free energy ΔG c = ΔG b(fast) − ΔG b(slow) = −1.1 kcal/mol. For comparison, full‐length hirudin and its N‐terminal domain 1–47, bind more tightly to the fast form by ~30‐fold (ΔG c = −2.1 kcal/mol), compared to the slow form (De Filippis et al., [2005]; Di Cera et al., [1997]). The higher af ... || (+ 1 further places)
# [7] = target: T3, α‐Thrombin mutant R93A (exosite II) (Homo sapiens, UniProt P00734, R452A); assay: Slow binding inhibition of thrombin mutant R93A; assay type: biochemical; conditions: slow binding inhibition model
# T3 construct: made in house
# Description: Single X → Ala mutants of αT at either exosite I (Phe34Ala, Lys73Ala, Lys110Ala) and II (Arg93Ala, Arg101Ala) were produced and purified to homogeneity as earlier reported (Acquasaliente et al., [2016]; Pozzi et al., [2013]) (Figure S3) and incubated with haemadin to extract kinetic (k on and k off) and equilibrium (K I) constants of αT inhibition. […]
# When slow binding inhibition assays were performed, αT (50 pM) was added to solutions of S2238 (50 μM) in the presence of increasing inhibitor (I) concentrations. From the time‐course release of pNA, [P]t, an observed kinetic constant (k obs) of substrate hydrolysis could be determined as a fitting parameter by interpolating each progress curve at increasing [I] to Equation (5) (Arcone et al., [2009]): (5) Pt=vs∙t+vo−vs/kobs∙1−e^−kobs∙t, where v 0 and v s is the initial or steady state velocity at each [I]. The association (k on) and dissociation (k off) rate constants of αT‐haemedin interaction were determined as fitting parameters by interpolating the data points of k obs as a function of [I] with Equation (6): (6) kobs=kon/1+S/Km∙I+koff. […]
# [8] = target: T4, recombinant wild type thrombin (αT) (Homo sapiens, UniProt P00734); assay: Slow binding inhibition of thrombin amidolytic activity (S2238 progress curves); assay type: biochemical; conditions: slow binding inhibition model (Eq. 5, 6), 25°C, TBS pH 7.4
# T4 construct: made in house
# Description: as §1, §2, §3, §4, §5, §6, §7
# with eq. […]
# [9] = Thermal denaturation monitored by far‐UV CD; assay type: physicochemical; conditions: PBS pH 7.4, protein 0.69 mg/mL; CD at 233 nm (haemadin) or 220 nm (hirudin); heating 40°C·h^−1; inflection point, rough estimate
# Description: CD spectra were recorded on a Jasco J‐810 spectropolarimeter equipped with a Peltier model ETC‐273 T temperature control system (De Filippis, Polverino de Laureto, et al., [1996]). Far and Near UV‐CD spectra were recorded in a 0.1‐ or 1 cm‐pathlength quartz cell at a peptide/protein concentration of 0.47 or 1 mg/mL, respectively. All measurements were performed in phosphate buffered saline (PBS, 10 mM Na2HPO4 pH 7.4, 0.15 M NaCl) at 25 ± 0.1°C. The final spectra resulted from the average of four accumulations after base line subtraction. CD data were expressed as the mean residue ellipticity, [θ] = θ obs·MRW/(10·l·c), where θ obs is the observed signal in degrees, MRW is the mean residue weight, l is the cuvette pathlength in cm, and c is the protein concentration in g∙mL^−1. Stability measurements were carried out by recording the change of the CD signal in the far‐UV region as a function of sample temperature, using a 0.1‐cm pathlength cuvette and linear heating rate of 40°C∙h^−1. The reversibility of thermal unfolding was determined by measuring the recovery of the CD signal upon cooling to the starting temperature. The melting temperature (T m) was estimated from the first‐derivative of the thermal denaturation curve (De Filippis, Vassiliev, et al., [1996]; Frigerio et al., [1996]).
compound,measurement,setting,value
CCCC[C@H](NC(=O)CNC(=O)[C@H](Cc1ccc2ccccc2c1)NC(=O)[C@H](CCCNC(=N)N)NC(=O)[C@@H](N)[C@@H](C)CC)C(=O)NCC(=O)N[C@@H](CCCCN)C(=O)N[C@H](C(=O)N1CCC[C@H]1C(=O)NCC(=O)NCC(=O)NCC(=O)N1CCC[C@H]1C(=O)N[C@@H](CCCCN)C(=O)N1CCC[C@H]1C(=O)N[C@@H](CO)C(=O)N[C@@H](CO)C(=O)N[C@@H](CCC(=O)O)C(=O)N[C@@H](Cc1ccccc1)C(=O)N[C@@H](CCC(=O)O)C(=O)N[C@@H](CCC(=O)O)C(=O)N[C@@H](Cc1ccccc1)C(=O)N[C@@H](CCC(=O)O)C(=O)N[C@H](C(=O)N[C@@H](CC(=O)O)C(=O)N[C@@H](CCC(=O)O)C(=O)N[C@@H](CCC(=O)O)C(=O)N[C@@H](CCC(=O)O)C(=O)N[C@@H](CCCCN)C(=O)O)[C@@H](C)CC)C(C)C [haemanorm] (H-IR[2Nal]G[Nle]GKVPGGGPKPSSEFEEFEIDEEEK-OH),resistance to proteolysis by αT at the Arg2‐βNal bond,αT [1],fully resistant
same,Ki,α‐thrombin (αT),0.8 nM
CCCC[C@H](NC(=O)CNC(=O)[C@H](Cc1ccc(O)cc1)NC(=O)[C@H](CCCNC(=N)N)NC(=O)[C@@H](N)[C@@H](C)CC)C(=O)NCC(=O)N[C@@H](CCCCN)C(=O)N[C@H](C(=O)N1CCC[C@H]1C(=O)NCC(=O)O)C(C)C [Phe3Tyr] (H-IRYG[Nle]GKVPG-OH),Log P,[2],1.97
same,Ki,α‐thrombin (αT),6600 ± 400 nM
SEFEEFEIDEEEK [Haem(45–57)],Kd,[3],1600 nM
same,Kd,[4],1180 ± 90 nM
VSYTD [reference compound],inhibition of αT,α‐thrombin (αT); not shown,lacks any significant inhibition
hirulog I: synthetic bivalent analogue of hirudin,cleavage by αT,αT [5],slowly cleaved
Phe3Trp: Phe3′ → Trp analogue of Haem(1–10),Ki,"α‐thrombin (αT); 25 ± 0.1°C, TBS, αT 250 pM incubated with peptide, S2238 50 μM, tight‐binding model (Eq. 3, 4), average of three independent measurements ± SD, read-out: K I",2900 ± 300 nM
CCCC[C@H](NC(=O)CNC(=O)[C@@H](NC(=O)[C@H](CCCNC(=N)N)NC(=O)[C@@H](N)[C@@H](C)CC)C(c1ccccc1)c1ccccc1)C(=O)NCC(=O)N[C@@H](CCCCN)C(=O)N[C@H](C(=O)N1CCC[C@H]1C(=O)NCC(=O)O)C(C)C [Phe3DiP] (H-IR[Dip]G[Nle]GKVPG-OH),Log P,[2],4.80
same,Ki,α‐thrombin (αT),7400 ± 400 nM
CCCC[C@H](NC(=O)CNC(=O)[C@H](CC1CCCCC1)NC(=O)[C@H](CCCNC(=N)N)NC(=O)[C@@H](N)[C@@H](C)CC)C(=O)NCC(=O)N[C@@H](CCCCN)C(=O)N[C@H](C(=O)N1CCC[C@H]1C(=O)NCC(=O)O)C(C)C [Phe3Cha] (H-IR[Cha]G[Nle]GKVPG-OH),Log P,[2],3.88
same,Ki,α‐thrombin (αT),3800 ± 100 nM
CCCC[C@H](NC(=O)CNC(=O)[C@H](Cc1cccc2ccccc12)NC(=O)[C@H](CCCNC(=N)N)NC(=O)[C@@H](N)[C@@H](C)CC)C(=O)NCC(=O)N[C@@H](CCCCN)C(=O)N[C@H](C(=O)N1CCC[C@H]1C(=O)NCC(=O)O)C(C)C [Phe3αNal] (H-IR[1Nal]G[Nle]GKVPG-OH),Log P,[2],4.00
"N‐terminal domain 1–40: N‐terminal domain 1–40 of haemadin (Richardson et al., 2002)",Ki,"αT [6]; ref Richardson et al., 2002",5 nM
"IRFGMGKVPCPDGEVGYTCDCGEKICLYGQSCNDGQCSGDPKPSSEFEEFEIDEEEK (disulfide 10-19, 21-32, 26-37) [haemadin]",koff,[7],3.68e-05 ± 1e-07 s⁻¹
same,kon,[7],2.998e+08 ± 300000 M⁻¹ s⁻¹
same,koff,[8],4.83e-05 ± 2e-07 s⁻¹
same,kon,[8]; αT 50 pM added to S2238 plus inhibitor,2.253e+08 ± 200000 M⁻¹ s⁻¹
same,Ki,α‐thrombin (αT),0.0015 ± 5e-05 nM
CCCC[C@H](NC(=O)CNC(=O)[C@H](Cc1ccccc1)NC(=O)[C@H](CCCNC(=N)N)NC(=O)[C@@H](N)[C@@H](C)CC)C(=O)NCC(=O)N[C@@H](CCCCN)C(=O)N[C@H](C(=O)N1CCC[C@H]1C(=O)NCC(=O)O)C(C)C [Met5Nle] (H-IRFG[Nle]GKVPG-OH),Log P,[2],2.73
same,Ki,α‐thrombin (αT),1900 ± 100 nM
hirudin,melting temperature (T m),[9],63 ± 1 °C and ~ 63 °C
same,coupling free energy ΔG c,"αT [6]; fast vs slow form, ref De Filippis et al., 2005, Di Cera et al., 1997",-2.1 kcal/mol
same,fold tighter binding to fast form than to slow form,"αT [6]; ref De Filippis et al., 2005, Di Cera et al., 1997",~ 30 fold
CCCC[C@H](NC(=O)CNC(=O)[C@H](Cc1ccc2ccccc2c1)NC(=O)[C@H](CCCNC(=N)N)NC(=O)[C@@H](N)[C@@H](C)CC)C(=O)NCC(=O)N[C@@H](CCCCN)C(=O)N[C@H](C(=O)N1CCC[C@H]1C(=O)NCC(=O)O)C(C)C [Phe3βNal] (H-IR[2Nal]G[Nle]GKVPG-OH),Log P,[2],4.00
same,Ki,α‐thrombin (αT),190 ± 10 nM
